Measurements published in PubChem BioAssay (NCI).
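Tested at 5 concentrations; 48 h exposure; 96-well plates; endpoints linearly interpolated, else capped at highest concentration. GI50 marks 50% less growth. TGI: concentration producing complete growth inhibition.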

Legend:
Assay in all cases: inhibition of tumour cell growth, NCI panel, 48 h
[1] = system: KM12 colon
[2] = system: OVCAR-4 ovarian
[3] = system: NCI/ADR-RES ovarian
[4] = system: HS 578T breast
[5] = system: LOX IMVI melanoma
[6] = system: SF-295 CNS
[7] = system: HOP-62 NSCLC
[8] = system: UACC-62 melanoma
[9] = system: MALME-3M melanoma
[10] = system: HL-60(TB) leukemia
[11] = system: SF-268 CNS
[12] = system: MOLT-4 leukemia
[13] = system: HT29 colon
[14] = system: 786-0 renal
[15] = system: SK-MEL-5 melanoma
[16] = system: SK-MEL-2 melanoma
[17] = system: UO-31 renal
[18] = system: TK-10 renal
[19] = system: K-562 leukemia
[20] = system: HCC-2998 colon
[21] = system: A498 renal
[22] = system: OVCAR-5 ovarian
[23] = system: NCI-H522 lung
[24] = system: HCT-116 colon
[25] = system: NCI-H23 lung
[26] = system: CAKI-1 renal
[27] = system: PC-3 prostate
[28] = system: SN12C renal
[29] = system: MDA-MB-435
[30] = system: SW-620 colon
[31] = system: HOP-92 NSCLC
[32] = system: IGROV1 ovarian
[33] = system: NCI-H460 lung
[34] = system: EKVX NSCLC
[35] = system: M14 melanoma
[36] = system: MCF7 breast
[37] = system: SR leukemia
[38] = system: MDA-MB-231 breast
[39] = system: SNB-75 CNS
[40] = system: A549 NSCLC
[41] = system: SK-MEL-28 melanoma
[42] = system: SF-539 CNS
[43] = system: T-47D breast
[44] = system: ACHN renal
[45] = system: COLO 205 colon
[46] = system: UACC-257 melanoma
[47] = system: RXF 393 renal
[48] = system: HCT-15 colon
[49] = system: CCRF-CEM leukemia
[50] = system: NCI-H226 lung
[51] = system: SNB-19 CNS
[52] = system: OVCAR-8 ovarian
[53] = system: U251 CNS
[54] = system: RPMI-8226 leukemia
[55] = system: DU-145 prostate
[56] = system: BT-549 breast
[57] = system: SK-OV-3 ovarian

SMILES: O=C(NNc1nc2cc(F)c(F)cc2n2c(CN3CC4CNCC4C3)ccc12)c1ncccn1 (stereo not given)
- GI50 [1]: 3.18 µM
- TGI [1]: 22.8 µM
- GI50 [2]: 2.8 µM
- TGI [2]: 17.9 µM
- GI50 [3]: 5.29 µM
- TGI [3]: 22.7 µM
- GI50 [4]: 5.98 µM
- TGI [4]: 37 µM
- GI50 [5]: 1.06 µM
- TGI [5]: 5.21 µM
- GI50 [6]: 0.847 µM
- TGI [6]: 12.5 µM
- GI50 [7]: 1.04 µM
- TGI [7]: 11.2 µM
- GI50 [8]: 2.57 µM
- TGI [8]: 11.6 µM
- GI50 [9]: 2.53 µM
- GI50 [10]: 2.62 µM
- TGI [10]: 10.7 µM
- GI50 [11]: 1.87 µM
- TGI [11]: 14.8 µM
- GI50 [12]: 3.14 µM
- TGI [12]: > 100 µM
- GI50 [13]: 3.76 µM
- TGI [13]: 32.2 µM
- GI50 [14]: 2.18 µM
- TGI [14]: 9.02 µM
- GI50 [15]: 1.65 µM
- TGI [15]: 4.4 µM
- GI50 [16]: 4.23 µM
- TGI [16]: 20.7 µM
- GI50 [17]: 0.448 µM
- TGI [17]: 10.1 µM
- GI50 [18]: 7.89 µM
- TGI [18]: 29.7 µM
- GI50 [19]: 2.4 µM
- TGI [19]: 74.5 µM
- GI50 [20]: 4.14 µM
- TGI [20]: 19.3 µM
- GI50 [21]: 2.36 µM
- TGI [21]: 8.64 µM
- GI50 [22]: 5.08 µM
- TGI [22]: 25.4 µM
- GI50 [23]: 4.37 µM
- TGI [23]: 21.2 µM
- GI50 [24]: 1.6 µM
- TGI [24]: 14.5 µM
- GI50 [25]: 3.48 µM
- TGI [25]: 16.2 µM
- GI50 [26]: 0.756 µM
- TGI [26]: 11.9 µM
- GI50 [27]: 3.22 µM
- TGI [27]: 39.6 µM
- GI50 [28]: 3.06 µM
- TGI [28]: 13.8 µM
- GI50 [29]: 3.85 µM
- TGI [29]: 16.4 µM
- GI50 [30]: 2.48 µM
- TGI [30]: 16.1 µM
- GI50 [31]: 6.46 µM
- TGI [31]: 28.3 µM
- GI50 [32]: 1.85 µM
- TGI [32]: 12.3 µM
- GI50 [33]: 0.567 µM
- TGI [33]: 6.99 µM
- GI50 [34]: 1.79 µM
- TGI [34]: 17.7 µM
- GI50 [35]: 1.14 µM
- TGI [35]: 9.42 µM
- GI50 [36]: 3.07 µM
- TGI [36]: 14 µM
- GI50 [37]: 1.53 µM
- TGI [37]: > 100 µM
- GI50 [38]: 3.64 µM
- TGI [38]: 21 µM
- GI50 [39]: 2.19 µM
- TGI [39]: 13.6 µM
- GI50 [40]: 2.82 µM
- TGI [40]: 13.2 µM
- GI50 [41]: 2.83 µM
- TGI [41]: 14.8 µM
- GI50 [42]: 2.76 µM
- TGI [42]: 9.5 µM
- GI50 [43]: 3.08 µM
- TGI [43]: 14.2 µM
- GI50 [44]: 0.512 µM
- TGI [44]: 10.7 µM
- GI50 [45]: 2.81 µM
- TGI [45]: 11.8 µM
- GI50 [46]: 2.8 µM
- TGI [46]: 9.36 µM
- GI50 [47]: 2 µM
- TGI [47]: 9.33 µM
- GI50 [48]: 0.526 µM
- TGI [48]: 25.1 µM
- GI50 [49]: 1.86 µM
- TGI [49]: > 100 µM
- GI50 [50]: 2.77 µM
- TGI [50]: 18.1 µM
- GI50 [51]: 3.53 µM
- TGI [51]: 29.1 µM
- GI50 [52]: 2.18 µM
- TGI [52]: 12.8 µM
- GI50 [53]: 1.9 µM
- TGI [53]: 14.6 µM
- GI50 [54]: 3.69 µM
- TGI [54]: 55.7 µM
- GI50 [55]: 2.31 µM
- TGI [55]: 16.1 µM
- GI50 [56]: 4.47 µM
- TGI [56]: 18.7 µM
- GI50 [57]: 1.96 µM
- TGI [57]: 14.8 µM

SMILES: COc1ccc(Cn2cc3c(c2-c2cc(OC)c(OC)c(OC)c2)CCc2c(CN4CCCC4)noc2-3)cc1
- GI50 [1]: 12.6 µM
- TGI [1]: 81.2 µM
- GI50 [2]: 21.4 µM
- TGI [2]: > 100 µM
- GI50 [3]: 0.55 µM
- TGI [3]: 11.2 µM
- GI50 [4]: 1.8 µM
- TGI [4]: 27.3 µM
- GI50 [6]: 0.461 µM
- TGI [6]: 12.4 µM
- GI50 [7]: 1.41 µM
- TGI [7]: 32.6 µM
- GI50 [8]: 0.545 µM
- TGI [8]: 22.7 µM
- GI50 [9]: 0.496 µM
- TGI [9]: 21.4 µM
- GI50 [10]: 0.317 µM
- TGI [10]: 1.28 µM
- GI50 [11]: 3.15 µM
- TGI [11]: 29.8 µM
- GI50 [12]: 1.47 µM
- TGI [12]: 32.8 µM
- GI50 [13]: 0.398 µM
- TGI [13]: 12.6 µM
- GI50 [14]: 0.997 µM
- TGI [14]: 21.9 µM
- GI50 [15]: 1.02 µM
- TGI [15]: 11.9 µM
- GI50 [16]: 13.2 µM
- TGI [16]: 41.4 µM
- GI50 [17]: 1.16 µM
- TGI [17]: 13.7 µM
- GI50 [18]: 23.4 µM
- TGI [18]: > 100 µM
- GI50 [19]: 0.348 µM
- TGI [19]: 16.6 µM
- GI50 [20]: 1.84 µM
- TGI [20]: 14.6 µM
- GI50 [21]: 0.78 µM
- TGI [21]: 6.38 µM
- GI50 [22]: 3.2 µM
- TGI [22]: > 100 µM
- GI50 [23]: 0.472 µM
- TGI [23]: 18.9 µM
- GI50 [24]: 0.466 µM
- TGI [24]: 14.9 µM
- GI50 [25]: 2.8 µM
- TGI [25]: > 100 µM
- GI50 [26]: 0.451 µM
- TGI [26]: 20.2 µM
- GI50 [27]: 0.636 µM
- TGI [27]: > 100 µM
- GI50 [28]: 4.43 µM
- TGI [28]: 78 µM
- GI50 [29]: 0.239 µM
- TGI [29]: 0.595 µM
- GI50 [30]: 0.54 µM
- TGI [30]: 80.3 µM
- GI50 [31]: 1.35 µM
- TGI [31]: 12 µM
- GI50 [32]: 0.892 µM
- TGI [32]: > 100 µM
- GI50 [33]: 0.566 µM
- TGI [33]: 12.6 µM
- GI50 [34]: 2.11 µM
- TGI [34]: > 100 µM
- GI50 [35]: 0.582 µM
- TGI [35]: 10.6 µM
- GI50 [36]: 0.325 µM
- TGI [36]: 20 µM
- GI50 [37]: 0.36 µM
- TGI [37]: 13.5 µM
- GI50 [38]: 3.05 µM
- TGI [38]: 15.2 µM
- GI50 [39]: 0.668 µM
- TGI [39]: 4.83 µM
- GI50 [40]: 1.33 µM
- TGI [40]: > 100 µM
- GI50 [41]: 11.5 µM
- TGI [41]: 29.6 µM
- GI50 [42]: 0.753 µM
- TGI [42]: 4.46 µM
- GI50 [43]: 2.65 µM
- TGI [43]: 48 µM
- GI50 [44]: 0.634 µM
- TGI [44]: 36.5 µM
- GI50 [45]: 0.941 µM
- TGI [45]: 5.49 µM
- GI50 [46]: 17 µM
- TGI [46]: 47.7 µM
- GI50 [47]: 0.893 µM
- TGI [47]: 7.96 µM
- GI50 [48]: 0.475 µM
- TGI [48]: 12.1 µM
- GI50 [49]: 0.727 µM
- TGI [49]: > 100 µM
- GI50 [50]: 2.07 µM
- TGI [50]: 30.3 µM
- GI50 [51]: 0.78 µM
- TGI [51]: > 100 µM
- GI50 [52]: 3.27 µM
- TGI [52]: 78.9 µM
- GI50 [53]: 0.543 µM
- TGI [53]: 21.1 µM
- GI50 [54]: 1.27 µM
- TGI [54]: 9.04 µM
- GI50 [55]: 4 µM
- TGI [55]: > 100 µM
- GI50 [56]: 2.47 µM
- TGI [56]: 14.3 µM
- GI50 [57]: 6.7 µM
- TGI [57]: > 100 µM
